One series addresses P-glycoprotein (P-gp) (Homo sapiens (Human), UniProt P08183). Kind of series: P-gp transport, experimental BA/AB ratio, human. The series is classed as in vitro ADME. The note with it: LLC-PK1, 1 μM substrate concentration. The source says: (§1) See Doan et al. “Passive permeability and P-glycoprotein-mediated efflux differentiate central nervous system (CNS) and non-CNS marketed drugs”, J. Pharm. Exper. […] Desirable human BA/AB ratio is less than 2.0. […] See, for example, Desai, et al. Integration of in Silico and in Vitro Tools for Scaffold Optimization during Drug Discovery: Predicting P-glycoprotein Efflux” Mol. Pharmac.

For the next series, the target named is human PDE2A1 (Homo sapiens (Human), UniProt O00408). Kind of series: PDE2 IMAP FP inhibition assay, human PDE2A1 (selectivity panel format). The series is classed as biochemical. An outline of the steps: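 IMAP fluorescence polarization assay; substrate 50 nM FAM-cAMP with 1000 nM cGMP, enzyme at ~20% conversion, in 10 mM Tris pH 7.2, 10 mM MgCl2, 1 mM DTT, 0.01% Tween-20. 60 min room temperature, stopped with IMAP binding reagent, 1 h, then parallel/perpendicular fluorescence read.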
Sequence of human PDE2A1 (O00408 other isoform, or with tags, fused parts or gaps): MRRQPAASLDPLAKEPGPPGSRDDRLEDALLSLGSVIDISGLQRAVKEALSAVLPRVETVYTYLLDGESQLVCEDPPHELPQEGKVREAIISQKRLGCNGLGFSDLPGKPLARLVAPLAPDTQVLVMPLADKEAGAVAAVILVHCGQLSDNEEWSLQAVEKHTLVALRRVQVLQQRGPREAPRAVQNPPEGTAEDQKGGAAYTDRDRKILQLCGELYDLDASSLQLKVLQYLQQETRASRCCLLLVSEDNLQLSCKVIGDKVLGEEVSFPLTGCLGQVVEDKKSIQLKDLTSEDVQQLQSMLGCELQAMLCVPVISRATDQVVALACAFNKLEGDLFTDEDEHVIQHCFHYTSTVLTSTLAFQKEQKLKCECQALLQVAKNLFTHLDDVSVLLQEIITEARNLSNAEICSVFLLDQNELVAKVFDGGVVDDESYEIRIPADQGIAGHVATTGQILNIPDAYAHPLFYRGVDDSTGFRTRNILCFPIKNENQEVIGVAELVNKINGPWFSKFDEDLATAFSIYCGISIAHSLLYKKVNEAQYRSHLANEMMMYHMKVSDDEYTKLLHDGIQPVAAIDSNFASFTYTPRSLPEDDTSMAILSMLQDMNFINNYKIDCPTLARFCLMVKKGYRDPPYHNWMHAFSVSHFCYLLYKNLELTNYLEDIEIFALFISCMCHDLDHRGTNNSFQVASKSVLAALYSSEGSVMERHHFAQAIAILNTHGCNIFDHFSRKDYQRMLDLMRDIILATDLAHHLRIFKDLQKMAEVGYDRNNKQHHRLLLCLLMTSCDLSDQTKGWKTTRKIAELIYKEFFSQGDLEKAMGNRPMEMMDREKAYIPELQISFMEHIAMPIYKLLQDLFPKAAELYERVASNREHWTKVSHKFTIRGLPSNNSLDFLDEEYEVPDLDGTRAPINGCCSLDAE

Series [1] has as its target P-glycoprotein (P-gp, rat Mdr1a) (Rattus norvegicus, UniProt Q6PSM0). Kind of series: P-gp transport, experimental BA/AB ratio, rat LLC-Mdr1a. The note with it: LLC-PK1; rat LLC-Mdrla; 1 μM substrate concentration. The series is classed as in vitro ADME.
Source text: as §1

The target in a further series is Rhesus PDE2A3 (Macaca mulatta, UniProt B3VTJ2). Kind of series: PDE2 fluorescence polarization (IMAP FP) inhibition assay, rhesus PDE2A3. The series is classed as biochemical, rhesus macaque. Background: Fluorescence polarisation rises when a labelled molecule tumbles more slowly, as on binding a larger partner.
Sequence of Rhesus PDE2A3 (B3VTJ2 1-941): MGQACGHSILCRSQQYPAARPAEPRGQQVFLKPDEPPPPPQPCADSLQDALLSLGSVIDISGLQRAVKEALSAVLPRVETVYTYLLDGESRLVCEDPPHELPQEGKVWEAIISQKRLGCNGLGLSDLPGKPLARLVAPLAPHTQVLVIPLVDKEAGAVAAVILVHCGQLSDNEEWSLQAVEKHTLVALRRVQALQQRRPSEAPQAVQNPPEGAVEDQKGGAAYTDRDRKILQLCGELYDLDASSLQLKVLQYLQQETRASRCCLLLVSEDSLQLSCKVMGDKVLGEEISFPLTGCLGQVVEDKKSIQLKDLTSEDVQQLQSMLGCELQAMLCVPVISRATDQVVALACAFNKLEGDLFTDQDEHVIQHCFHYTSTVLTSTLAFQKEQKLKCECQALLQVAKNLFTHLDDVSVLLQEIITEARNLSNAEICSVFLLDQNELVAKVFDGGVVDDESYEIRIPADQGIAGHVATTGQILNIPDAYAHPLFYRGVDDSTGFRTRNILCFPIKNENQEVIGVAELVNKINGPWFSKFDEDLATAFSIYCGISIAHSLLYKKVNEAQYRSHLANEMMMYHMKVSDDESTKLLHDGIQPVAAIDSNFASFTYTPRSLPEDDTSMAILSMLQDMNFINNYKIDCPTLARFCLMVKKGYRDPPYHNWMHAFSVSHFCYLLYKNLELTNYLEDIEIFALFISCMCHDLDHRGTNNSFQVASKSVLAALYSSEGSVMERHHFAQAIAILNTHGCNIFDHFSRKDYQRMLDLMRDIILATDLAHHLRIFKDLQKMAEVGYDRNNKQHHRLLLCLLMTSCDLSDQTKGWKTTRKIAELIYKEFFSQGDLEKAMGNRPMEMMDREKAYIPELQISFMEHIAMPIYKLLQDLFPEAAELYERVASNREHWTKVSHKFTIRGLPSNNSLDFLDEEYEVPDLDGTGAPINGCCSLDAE
Setting [2] is: Lab B, read-out: Human PDE2 Ki (nM) - Lab B.
Where [3] appears, read: Lab B, read-out: Rhesus PDE2 Ki (nM) - Lab B.
The mark [4] stands for this setting: Lab A, read-out: Human PDE2 Ki (nM) - Lab A.
The mark [5] stands for this setting: Lab A, read-out: Rhesus PDE2 Ki (nM) - Lab A.

Read-outs that look alike come from different tables or passages of the source.

Sequence of P-glycoprotein (P-gp, rat Mdr1a) (Q6PSM0 1-1272): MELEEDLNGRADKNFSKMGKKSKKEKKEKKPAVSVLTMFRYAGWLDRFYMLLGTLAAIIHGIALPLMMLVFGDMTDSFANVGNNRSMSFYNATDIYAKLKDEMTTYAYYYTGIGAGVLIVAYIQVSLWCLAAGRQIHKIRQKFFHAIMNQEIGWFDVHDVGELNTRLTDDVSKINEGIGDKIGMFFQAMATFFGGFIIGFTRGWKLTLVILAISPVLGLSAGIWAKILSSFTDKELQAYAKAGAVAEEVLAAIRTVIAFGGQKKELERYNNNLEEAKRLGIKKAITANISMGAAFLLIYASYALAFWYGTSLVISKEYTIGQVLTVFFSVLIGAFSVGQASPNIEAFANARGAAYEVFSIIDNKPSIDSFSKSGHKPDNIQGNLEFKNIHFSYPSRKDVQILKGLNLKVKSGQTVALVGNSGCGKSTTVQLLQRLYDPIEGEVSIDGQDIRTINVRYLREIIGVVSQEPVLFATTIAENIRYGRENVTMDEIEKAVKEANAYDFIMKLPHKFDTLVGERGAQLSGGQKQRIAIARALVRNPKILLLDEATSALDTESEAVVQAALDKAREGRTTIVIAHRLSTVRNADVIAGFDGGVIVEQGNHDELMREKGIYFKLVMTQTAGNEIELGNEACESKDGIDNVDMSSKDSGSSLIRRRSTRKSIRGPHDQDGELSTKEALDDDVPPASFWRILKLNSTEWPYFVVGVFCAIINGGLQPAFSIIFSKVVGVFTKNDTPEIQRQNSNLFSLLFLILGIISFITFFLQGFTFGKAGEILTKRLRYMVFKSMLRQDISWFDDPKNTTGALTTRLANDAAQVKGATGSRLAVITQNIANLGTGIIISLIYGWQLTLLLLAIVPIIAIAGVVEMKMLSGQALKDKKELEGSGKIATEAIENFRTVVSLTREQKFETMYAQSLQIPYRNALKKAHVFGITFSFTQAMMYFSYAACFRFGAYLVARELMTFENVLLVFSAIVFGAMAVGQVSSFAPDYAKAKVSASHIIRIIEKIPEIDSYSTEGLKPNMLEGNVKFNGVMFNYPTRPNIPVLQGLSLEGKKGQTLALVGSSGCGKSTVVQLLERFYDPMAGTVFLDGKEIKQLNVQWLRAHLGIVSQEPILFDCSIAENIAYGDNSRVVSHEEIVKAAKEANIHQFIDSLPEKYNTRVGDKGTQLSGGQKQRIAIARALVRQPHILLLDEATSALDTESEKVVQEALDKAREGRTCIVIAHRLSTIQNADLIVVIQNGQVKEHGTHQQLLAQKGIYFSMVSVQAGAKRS
Sequence of P-glycoprotein (P-gp) (P08183 whole entry): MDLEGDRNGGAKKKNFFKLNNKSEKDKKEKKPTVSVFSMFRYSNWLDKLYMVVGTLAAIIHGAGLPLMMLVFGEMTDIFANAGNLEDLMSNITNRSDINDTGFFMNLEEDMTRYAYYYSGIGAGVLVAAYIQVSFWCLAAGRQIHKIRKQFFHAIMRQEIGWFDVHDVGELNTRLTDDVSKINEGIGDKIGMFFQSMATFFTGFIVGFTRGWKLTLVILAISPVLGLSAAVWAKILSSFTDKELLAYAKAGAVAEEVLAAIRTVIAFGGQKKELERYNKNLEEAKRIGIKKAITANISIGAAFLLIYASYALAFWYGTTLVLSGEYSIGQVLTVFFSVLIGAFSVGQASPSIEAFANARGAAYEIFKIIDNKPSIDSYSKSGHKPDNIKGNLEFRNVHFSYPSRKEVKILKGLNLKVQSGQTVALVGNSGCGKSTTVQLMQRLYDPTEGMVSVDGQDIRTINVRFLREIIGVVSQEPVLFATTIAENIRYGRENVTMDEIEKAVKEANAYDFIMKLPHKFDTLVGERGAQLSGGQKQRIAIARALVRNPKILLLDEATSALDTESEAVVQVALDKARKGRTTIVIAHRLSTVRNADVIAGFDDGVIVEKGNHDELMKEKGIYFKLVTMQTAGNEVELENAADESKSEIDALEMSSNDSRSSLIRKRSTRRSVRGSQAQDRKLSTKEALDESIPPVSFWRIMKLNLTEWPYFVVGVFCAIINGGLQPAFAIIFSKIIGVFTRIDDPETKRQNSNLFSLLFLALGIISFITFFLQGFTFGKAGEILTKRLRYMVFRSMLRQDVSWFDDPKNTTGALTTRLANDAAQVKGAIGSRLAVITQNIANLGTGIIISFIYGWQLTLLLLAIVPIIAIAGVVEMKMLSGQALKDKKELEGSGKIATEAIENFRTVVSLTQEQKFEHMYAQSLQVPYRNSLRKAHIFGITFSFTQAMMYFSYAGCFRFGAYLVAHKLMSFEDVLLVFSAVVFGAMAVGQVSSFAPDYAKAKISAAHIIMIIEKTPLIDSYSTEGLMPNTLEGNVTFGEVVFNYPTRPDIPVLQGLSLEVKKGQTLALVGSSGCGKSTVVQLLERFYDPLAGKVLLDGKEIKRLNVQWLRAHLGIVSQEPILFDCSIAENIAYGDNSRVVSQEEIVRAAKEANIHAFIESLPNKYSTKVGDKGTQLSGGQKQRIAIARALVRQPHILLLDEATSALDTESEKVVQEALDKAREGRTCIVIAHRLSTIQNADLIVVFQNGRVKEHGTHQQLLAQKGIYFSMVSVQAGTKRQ

On to `CN(C)c1nc(C(=O)N[C@@H](c2ccc(SC(F)(F)F)cc2)C(C)(C)C)cc(=O)[nH]1` [Example 103, 2-(dimethylamino)-N-[(1R)-2,2-dimethyl-1-{4-[(trifluoromethyl)sulfanyl]phenyl}propyl]-6-oxo-1,6-dihydropyrimidine-4-carboxamide], for which the figures for the efflux ratio at 1 μM (on P-glycoprotein (P-gp); in series [1]) were 2.2 and 8.2, respectively. Further, the Ki on human PDE2A1 (setting [2]) and at Rhesus PDE2A3 (setting [3]) was 0.12 nM in each case.
Turning to `C[C@@H](NC(=O)c1cc(=O)[nH]c(N2CCCC2)n1)c1ccc(C(F)(F)F)cc1` [Example 6, (R)-6-oxo-2-(pyrrolidin-1-yl)-N-(1-(4-(trifluoromethyl)phenyl)ethyl)-1,6-dihydropyrimidine-4-carboxamide], the efflux ratio (usually the permeability from basolateral to apical divided by that in the opposite direction, in the common usage) at 1 μM at P-glycoprotein (P-gp) turned out to be 0.5; in series [1], 3.2. In addition, the values for the Ki on human PDE2A1 (setting [4]) and on Rhesus PDE2A3 (setting [5]) were 1.7 nM and 2.5 nM, respectively.
`CC(C)[C@@H](NC(=O)c1cc(=O)[nH]c(N(C)C)n1)c1ccc(C(F)(F)F)cc1` [Example 47, 2-(dimethylamino)-N-{(1R)-2-methyl-1-[4-(trifluoromethyl)phenyl]propyl}-6-oxo-1,6-dihydropyrimidine-4-carboxamide]: the efflux ratio at 1 μM at P-glycoprotein (P-gp) turned out to be 0.6; in series [1], 2.1. For the same compound, the Ki – broadly, a dissociation constant, usually derived from enzyme kinetics or from competition with a known ligand – on human PDE2A1 (setting [2]) stood at 0.44 nM; on Rhesus PDE2A3 (setting [3]) it was 0.43 nM.
For the compound `O=C(NC1(c2ccc(C(F)(F)F)c(F)c2)CC1)c1cc(=O)[nH]c(N2CCCC2)n1` [Example 1, N-(1-(3-fluoro-4-(trifluoromethyl)phenyl)cyclopropyl)-6-oxo-2-(pyrrolidin-1-yl)-1,6-dihydropyrimidine-4-carboxamide], the efflux ratio at 1 μM is 0.8 at P-glycoprotein (P-gp) and 7.2 in series [1]. Also, the inhibition constant Ki on human PDE2A1 (setting [4]) came out at 0.48 nM; on Rhesus PDE2A3 (setting [5]), 1.3 nM.
`CN(C)c1nc(C(=O)N[C@@H](c2ccc(CC(F)(F)F)cc2)C(C)(C)C)cc(=O)[nH]1` [Example 31, 2-(dimethylamino)-N-{(1R)-2,2-dimethyl-1-[4-(2,2,2-trifluoroethyl)phenyl]propyl}-6-oxo-1,6-dihydropyrimidine-4-carboxamide]: the efflux ratio at 1 μM on P-glycoprotein (P-gp) came to 1.5; in series [1], 9.7. Moreover, the inhibition constant (Ki) was determined as 0.51 nM on human PDE2A1 (setting [2]) and 0.42 nM at Rhesus PDE2A3 (setting [3]).
Take `CC(C)[C@@H](NC(=O)c1cc(=O)[nH]c(N2CC(F)C2)n1)c1ccc(OC(F)(F)F)c(F)c1` [Example 164, 2-(3-fluoroazetidin-1-yl)-N-{(1R)-1-[3-fluoro-4-(trifluoromethoxy)phenyl]-2-methylpropyl}-6-oxo-1,6-dihydropyrimidine-4-carboxamide]: the efflux ratio at 1 μM came to 2.6 at P-glycoprotein (P-gp) and 7.5 in series [1]. The Ki at human PDE2A1 (setting [2]) was determined as 3.9 nM; on Rhesus PDE2A3 (setting [5]) it was 2.4 nM; on Rhesus PDE2A3 (setting [3]), 4 nM.
Turning to `C[C@@H](NC(=O)c1cc(=O)[nH]c(NC2CCC2)n1)c1ccc(C(F)(F)F)cc1` [Example 138, 2-(cyclobutylamino)-6-oxo-N-{(1R)-1-[4-(trifluoromethyl)phenyl]ethyl}-1,6-dihydropyrimidine-4-carboxamide], the efflux ratio at 1 μM worked out at 1.2 at P-glycoprotein (P-gp) and 29.8 in series [1]. Moreover, the inhibitory constant (Ki) at human PDE2A1 (setting [4]) turned out to be 38 nM; on Rhesus PDE2A3 (setting [5]), 67 nM.
The like results for `CNc1nc(C(=O)N[C@H](C)c2ccc(SC(F)(F)F)cc2)cc(=O)[nH]1` [Example 144, 2-(methylamino)-6-oxo-N-[(1R)-1-{4-[(trifluoromethyl)sulfanyl]phenyl}ethyl]-1,6-dihydro-pyrimidine-4-carboxamide] were, in that order, 3.3, 14.2, 3.4 nM and 5.7 nM.
Turning to `CC(C)[C@@H](NC(=O)c1cc(=O)[nH]c(N2CC[C@H](F)C2)n1)c1ccc(SC(F)(F)F)c(F)c1` [Example 165, 2-[(3S)-3-fluoropyrrolidin-1-yl]-N-[(1R)-1-{3-fluoro-4-[(trifluoromethyl)sulfanyl]phenyl}-2-methylpropyl]-6-oxo-1,6-dihydropyrimidine-4-carboxamide], the efflux ratio at 1 μM on P-glycoprotein (P-gp) stood at 3.6; in series [1], 20.1. The inhibitory constant (Ki) on human PDE2A1 (setting [2]) is 0.45 nM; at Rhesus PDE2A3 (setting [5]), 0.33 nM; on Rhesus PDE2A3 (setting [3]), 0.5 nM.
In the case of `CN(C)c1nc(C(=O)N[C@@H](c2ccc(C(F)(F)F)cc2)C2(C)CC2)cc(=O)[nH]1` [Example 43, 2-(dimethylamino)-N-{(R)-(1-methylcyclopropyl)[4-(trifluoromethyl)phenyl]methyl}-6-oxo-1,6-dihydropyrimidine-4-carboxamide], the results for the efflux ratio at 1 μM (on P-glycoprotein (P-gp); in series [1]) were 0.7 and 2.3, respectively. For the same compound, the results for the Ki at human PDE2A1 (setting [2]) and at Rhesus PDE2A3 (setting [3]) were 0.32 nM and 0.23 nM, respectively.
Take `CN(C)c1nc(C(=O)N[C@@H](c2ccc(C(F)F)cc2)C2(C)CC2)cc(=O)[nH]1` [Example 61, N-[(R)-[4-(difluoromethyl)phenyl](1-methylcyclopropyl)methyl]-2-(dimethylamino)-6-oxo-1,6-dihydropyrimidine-4-carboxamide]: the efflux ratio at 1 μM on P-glycoprotein (P-gp) was 1.6; in series [1], 12.3. Moreover, the inhibition constant Ki at human PDE2A1 (setting [2]) came to 0.75 nM; on Rhesus PDE2A3 (setting [3]), 0.82 nM.
For the compound `C[C@@H](NC(=O)c1cc(=O)[nH]c(N2CCCCC2)n1)c1ccc(C(F)(F)F)cc1` [Example 131, 6-oxo-2-piperidin-1-yl-N-{(1R)-1-[4-(trifluoromethyl)phenyl]ethyl}-1,6-dihydropyrimidine-4-carboxamide], the efflux ratio at 1 μM at P-glycoprotein (P-gp) came to 0.3; in series [1] it was 1.5. The Ki is 24 nM on human PDE2A1 (setting [4]) and 32 nM on Rhesus PDE2A3 (setting [5]).
For the compound `CN(C)c1nc(C(=O)N[C@@H](c2ccc(C(F)(F)F)cc2)C2CC2)cc(=O)[nH]1` [Example 108, N-{(1R)-cyclopropyl[4-(trifluoromethyl)phenyl]methyl}-2-(dimethylamino)-6-oxo-1,6-dihydropyrimidine-4-carboxamide], the efflux ratio at 1 μM on P-glycoprotein (P-gp) came out at 0.4; in series [1], 1.9. Besides, the figures for the Ki at human PDE2A1 (setting [2]), on Rhesus PDE2A3 (setting [5]) and on Rhesus PDE2A3 (setting [3]) were 1.8 nM, 0.66 nM and 1.3 nM, respectively.

For the origin of these results see patent US10285989B2, “Pyrimidinone amide compounds as PDE2 inhibitors” (Merck Sharp & Dohme Corp., priority 2015, dated 2019).
